Results on 17 compounds are retold here after patent publication US9126952B2, “Morpholinylquinazolines” (Merck Patent GmbH, priority 2010, dated 2015).

This assay concerns the target DNA-PK (Homo sapiens (Human), UniProt P78527). Nature of the assay: DNA-PK/biochemical assay (FlashPlate kinase assay). The following applies: 5 μM ATP, 90 min, room temperature; read-out: Binding DNA-PK IC50. The protocol:
[…] To this end, 1.5 μg of the DNA-PK/protein complex and 100 ng of biotinylated substrate, such as, for example, PESQEAFADLWKK biotin-NH2 (“biotin-DNA-PK peptide”), in a total volume of 36.5 μl (34.25 mM HEPES/KOH, 7.85 mM Tris-HCl, 68.5 mM KCl, 5 μM ATP, 6.85 mM MgCl2, 0.5 mM EDTA, 0.14 mM EGTA, 0.69 mM DTT, pH 7.4), were incubated at room temperature for 90 min with 500 ng of DNA from calf thymus, 0.1 μCi of 33P-ATP and 1.8% of DMSO per well with or without the test compound. The reaction was stopped using 50 μl/well of 200 mM EDTA. After incubation for a further 30 min at room temperature, the liquid was removed. Each well was washed three times with 100 μl of 0.9% sodium chloride solution. A non-specific reaction (blank value) was determined using 10 μM of a proprietary kinase inhibitor. The radioactivity measurement was carried out by means of a TopCount. IC50 values were calculated in RS1. • Literature: Kashishian et al. (2003) Molecular Cancer Therapeutics 1257.

`OC(c1ccsc1)C1CCCN(c2ncnc3cc(N4CCOCC4)ccc23)C1` (centres unmarked) [compound 45, [1-(7-Morpholin-4-yl-quinazolin-4-yl)-piperidin-3-yl]-thiophen-3-yl-methanol]: the IC50 was under 100 nM.
As for `OC(c1nccs1)C1CCCN(c2ncnc3cc(N4CCOCC4)ccc23)C1` (centres unmarked) [compound 46, [1-(7-Morpholin-4-yl-quinazolin-4-yl)-piperidin-3-yl]-thiazol-2-yl-methanol], the IC50 is under 100 nM.
Then `Cc1cnc(C(O)C2CCCN(c3ncnc4cc(N5CCOCC5)ccc34)C2)s1` (centres unmarked) [compound 47, (5-Methyl-thiazol-2-yl)-[1-(7-morpholin-4-ylquinazolin-4-yl)-piperidin-3-yl]-methanol], with under 100 nM; and `Cc1nc(C(O)C2CCCN(c3ncnc4cc(N5CCOCC5)ccc34)C2)sc1C` (centres unmarked) [compound 48, (4,5-Dimethyl-thiazol-2-yl)-[1-(7-morpholin-4-yl-quinazolin-4-yl)-piperidin-3-yl]-methanol], with under 100 nM.
Then `Cc1csc(C(O)C2CCCN(c3ncnc4cc(N5CCOCC5)ccc34)C2)n1` (centres unmarked) [compound 49, (4-Methylthiazol-2-yl)-[1-(7-morpholin-4-ylquinazolin-4-yl)-piperidin-3-yl]-methanol], with under 100 nM.
In the case of `O=C(c1nccs1)C1CCCN(c2ncnc3cc(N4CCOCC4)ccc23)C1` (centres unmarked) [compound 50, [1-(7-Morpholin-4-yl-quinazolin-4-yl)-piperidin-3-yl]-thiazol-2-yl-methanone], the IC50 is under 100 nM.
The result for `Cc1cnc(CC2CCCN(c3ncnc4cc(N5CCOCC5)ccc34)C2)s1` (centres unmarked) [compound 51, 4-[3-(5-Methyl-thiazol-2-ylmethyl)-piperidin-1-yl]-7-morpholin-4-yl-quinazoline] reads under 100 nM.
Then `Cc1nc(CC2CCCN(c3ncnc4cc(N5CCOCC5)ccc34)C2)sc1C` (centres unmarked) [compound 52, 4-[3-(4,5-Dimethyl-thiazol-2-ylmethyl)-piperidin-1-yl]-7-morpholin-4-yl-quinazoline], with under 100 nM; and `OC(c1ncco1)C1CCCN(c2ncnc3cc(N4CCOCC4)ccc23)C1` (centres unmarked) [compound 53, [1-(7-Morpholin-4-yl quinazolin-4-yl)-piperidin-3-yl]-oxazol-2-yl-methanol], with under 100 nM; and `Oc1nc(N2CCCCC2)c2ccc(N3CCOCC3)cc2n1` [compound 54, 7-Morpholin-4-yl-4-piperidin-1-yl-quinazolin-2-ol], with over 1000 nM.
The result for `Cn1ccnc1C(O)C1CCCN(c2ncnc3cc(N4CCOCC4)ccc23)C1` (centres unmarked) [compound 55, (1-Methyl-1H-imidazol-2-yl)-[1-(7-morpholin-4-yl-quinazolin-4-yl)-piperidin-3-yl]-methanol] reads 100 to 500 nM; that for `Cc1csc(CC2CCCN(c3ncnc4cc(N5CCOCC5)ccc34)C2)n1` (centres unmarked) [compound 56, 4-[3-(4-Methyl-thiazol-2-ylmethyl)-piperidin-1-yl]-7-morpholin-4-yl-quinazoline], under 100 nM; that for `Nc1nc(N2CCCCC2)c2ccc(N3CCOCC3)cc2n1` [compound 57, 7-Morpholin-4-yl-4-piperidin-1-yl-quinazolin-2-ylamine], 500 to 1000 nM.
For the compound `N#Cc1nc(N2CCCCC2)c2ccc(N3CCOCC3)cc2n1` [compound 58, 7-Morpholin-4-yl-4-piperidin-1-yl-quinazoline-2-carbonitrile], the IC50 fell in the range of 100 to 500 nM.
The result for `O=C(NC1CCCN(c2nc(Cl)nc3cc(N4CCOCC4)ccc23)C1)c1cncs1` (centres unmarked) [compound 59] reads under 100 nM; that for `O=C(NC1CCCN(c2nc(Cl)nc3cc(N4CCOCC4)ccc23)C1)c1nccs1` (centres unmarked) [compound 60, N-[1-(2-Chloro-7-morpholin-4-yl-quinazolin-4-yl)-piperidin-3-yl]-thiazole-2-carboxamide], under 100 nM.
Turning to `O=C(NC1CCCN(c2nc(Cl)nc3cc(N4CCOCC4)ccc23)C1)c1cscn1` (centres unmarked) [compound 61], the IC50 lay within 100 to 500 nM.
